Tests used:
NFATc2 = test: NFAT pathway activation in stimulated T cells (western blot of NFATc2); assay type: cell-based, human; details: 4 h
Description: FIG. 22A and FIG. 22B show the effects of active compounds on NFAT pathway activation. […] FIG. 22C and FIG. 22D show the effects of active compounds on MAPK pathway. […] All treatments were done for 24 h.

NuRD complex = test: Expression-based proteomics (TMT-exp) of compound-treated T cells, NuRD complex; assay type: cell-based, human; details: BPK-25 10 μM, 24 h; for decrease in GATAD2B, MBD2, MBD3, and MTA2 (NuRD complex proteins): BPK-21 20 μM, EV-3 10 μM, DMF 50 μM
Description: FIG. 7B is a scatter plot representation of protein abundance changes caused by BPK-25 (10 μM, 24 h) in two independent replicate experiments, with decreases in NuRD complex components highlighted in red. FIG. 7C is a heatmap of top proteins with decreased abundance in BPK-25-treated T cells showing that the subset of these proteins in the NuRD complex (asterisks) were largely unaltered by other active compounds and blocked in their degradation by co-treatment with the proteasome inhibitor MG132. […] FIG. 7E is a bar graph […] showing time-dependent reductions in NuRD complex members in human T cells treated with BPK-25 (10 μM). Left, representative western blots. Right, quantification of changes in protein. […] FIG. 7G is a heat map showing the changes in cysteine reactivity for NuRD complex members in human T cells treated with BPK-25 and other active compounds.
Freshly isolated T cells (1.6×10^7 cells, 2×10^6 cells/mL in RPMI media) were treated with compound or DMSO for 24 h, pelleted (600 g, 5 min), and washed with PBS (1×10 mL). The cells were then transferred to an Eppendorf tube in additional PBS (1 mL), pelleted (600 g, 5 min), flash frozen, and kept at −80° C. until further analysis. On the first day of the whole proteome TMT protocol, the cells were thawed on ice and lysed in lysis buffer (150 μL, 1 tablet of Roche complete, mini, EDTA-free Protease Inhibitor Cocktail dissolved in 10 mL of PBS) using a probe sonicator (2×8 pulses). Protein concentration was adjusted to 2.0 mg/mL and the samples (100 μL) were transferred to new Eppendorf tubes (1.5 mL) containing urea (48 mg/tube, final urea concentration: 8 M). DTT (5 μL, 200 mM fresh stock in H2O, final DTT concentration: 10 mM) was then added to the tubes and the samples were incubated at 65° C. for 15 min. Following this incubation, iodoacetamide (5 μL, 400 mM fresh stock in H2O, final IA concentration: 20 mM) was added and the samples were incubated in the dark at 37° C. with shaking for 30 min. Ice-cold MeOH (600 μL), CHCl3 (200 μL), and H2O (500 μL) were then added, the mixture was vortexed and centrifuged (10,000 g, 10 min, 4° C.) to afford a protein disc at the interface of CHCl3 and aqueous layers. The top layer was aspirated without perturbing the disk, additional MeOH (600 μL) was added and the proteins were pelleted (10,000 g, 10 min, 4° C.) and used in the next step or stored at −80° C. overnight.
The resulting protein pellets were resuspended in EPPS buffer (160 μL, 200 mM, pH 8) using a probe sonicator (2×6 pulses). […]
The sample became clear after the overnight digestion. At this point, peptide concentration was determined using microBCA assay (Thermo Scientific) according to manufacturer's instructions. […]

| SMILES | reductions in NFATc2 dephosphorylation (NFAT activation) (NFATc2) | decrease in GATAD2B, MBD2, MBD3, and MTA2 (NuRD complex proteins) (NuRD complex) | NFATc2 expression (NFATc2) | reduced abundance of additional NuRD complex members (NuRD complex) |
| --- | --- | --- | --- | --- |
| C=CC(=O)N(Cc1cccc(Cl)c1Cl)c1ccc(Oc2ccccc2)c(C(F)(F)F)c1 [BPK-21] | did not appear to impact | – | – | – |
| COC(=O)/C=C/C(=O)OC [DMF, reference compound] | – | not leading to NuRD complex degradation | – | – |
| C=CC(=O)N(Cc1cccc(Cl)n1)c1ccc(C(=O)Nc2ccccc2)nc1 [BPK-25] | – | > 50% | reduced NFATc2 expression | 25-50% |
